Measured values taken from paper PMC5920526 (ACS catalysis, 2017).

How the values were obtained:
SpNanC [1] = assay: Substrate specificity of SpNanC with pNP-tagged α2–3-linked sialosides; assay type: biochemical, Streptococcus pneumoniae; settings: for Percentage conversion: sialoside as substrate of SpNanC; for yield of cleavage by SpNanC: reactions using 3 μg of SpNanC
AuSialidase = AuSialidase (Paenarthrobacter ureafaciens, UniProt Q5W7Q2); assay: Sialidase inhibition, Neu5Acα2–3GalβpNP as substrate; assay type: biochemical, Arthrobacter ureafaciens; settings: for inhibitory activity against AuSialidase (in words): 0.1 mM inhibitor
SpNanC [2] = assay: as above; assay type: biochemical, Streptococcus pneumoniae; settings: 0.1 mM inhibitor
BiNanH2 = BiNanH2 (Bifidobacterium longum subsp. infantis, UniProt A0ACD7UU12); assay: as above; assay type: biochemical; settings: for inhibitory activity against BiNanH2 (in words): 0.1 mM inhibitor
CpNanI = assay type: biochemical, Clostridium perfringens; settings: 0.1 mM inhibitor
PmST1 = PmST1 (Pasteurella multocida, UniProt Q15KI8); assay type: biochemical; settings: 0.1 mM inhibitor
SpNanA = SpNanA (Streptococcus pneumoniae, UniProt P62575); assay: biochemical; settings: for IC50: read-out: IC50 against SpNanA, Neu5Acα2–3GalβpNP as substrate; for inhibitory activity against SpNanA (in words): 0.1 mM inhibitor
CpNanH = CpNanH (Clostridium perfringens, UniProt P10481); assay type: biochemical
SpNanB = SpNanB (Streptococcus pneumoniae serotype 4, UniProt Q54727); assay: Sialidase inhibition, Neu5Acα2–3GalβpNP as substrate; assay type: biochemical; settings: 0.1 mM inhibitor
VcSialidase = VcSialidase (Vibrio cholerae serotype O1, UniProt P0C6E9); assay: biochemical
[3] = molecular target: human cytosolic sialidase hNEU2 (Homo sapiens, UniProt Q9Y3R4); assay: Sialidase inhibition, Neu5Acα2–3GalβpNP as substrate; assay type: biochemical; settings: 0.1 mM inhibitor

## O=C(O)[C@@]1(O[C@H]2[C@@H](O)[C@@H](CO)O[C@@H](Oc3ccc([N+](=O)[O-])cc3)[C@@H]2O)C[C@H](O)[C@@H](F)[C@H]([C@H](O)[C@H](O)CO)O1 [Kdn5Fα2–3GalβpNP]
SpNanC [1]
  Percentage conversion: 0.48 ± 0.00%

## [N-]=[N+]=NC1C(O)CC(OC2C(O)C(CO)OC(Oc3ccc([N+](=O)[O-])cc3)C2O)(C(=O)O)OC1C(O)C(O)CO (stereo not drawn) [Kdn5N3α2–3GalβpNP]
SpNanC [1]
  Percentage conversion: 0.32 ± 0.45%

## CO[C@H]1[C@H]([C@H](O)[C@H](O)CO)O[C@](O[C@H]2[C@@H](O)[C@@H](CO)O[C@@H](Oc3ccc([N+](=O)[O-])cc3)[C@@H]2O)(C(=O)O)C[C@@H]1O [Kdn5OMeα2–3GalβpNP]
SpNanC [1]
  Percentage conversion: 1.53 ± 1.02%

## O=C(O)C1(OC2C(O)C(CO)OC(Oc3ccc([N+](=O)[O-])cc3)C2O)CC(O)CC(C(O)C(O)CO)O1 (centres unmarked) [Kdn5deoxyα2–3GalβpNP]
SpNanC [1]
  Percentage conversion: 5.31 ± 0.23%

## O=C(O)[C@]1(O[C@H]2[C@@H](O)[C@@H](CO)O[C@@H](Oc3ccc([N+](=O)[O-])cc3)[C@@H]2O)C[C@H](O)[C@@H](O)[C@H]([C@H](F)[C@H](O)CO)O1 [Kdn7Fα2–3GalβpNP]
SpNanC [1]
  Percentage conversion: 0.56 ± 0.11%

## [N-]=[N+]=NC(C(O)CO)C1OC(OC2C(O)C(CO)OC(Oc3ccc([N+](=O)[O-])cc3)C2O)(C(=O)O)CC(O)C1O (stereo not drawn) [Kdn7N3α2–3GalβpNP]
SpNanC [1]
  Percentage conversion: 4.50 ± 0.45%

## CO[C@@H]([C@@H]1O[C@](O[C@H]2[C@@H](O)[C@@H](CO)O[C@@H](Oc3ccc([N+](=O)[O-])cc3)[C@@H]2O)(C(=O)O)C[C@H](O)[C@H]1O)[C@H](O)CO [Kdn7OMeα2–3GalβpNP]
SpNanC [1]
  yield of cleavage by SpNanC: 23%
  Percentage conversion: 23.4 ± 3.3%

## O=C(O)C1(OC2C(O)C(CO)OC(Oc3ccc([N+](=O)[O-])cc3)C2O)CC(O)C(O)C(CC(O)CO)O1 (centres unmarked) [Kdn7deoxyα2–3GalβpNP]
SpNanC [1]
  yield of cleavage by SpNanC: 10%
  Percentage conversion: 10.1 ± 0.0%

## O=C(O)C1(OC2C(O)C(CO)OC(Oc3ccc([N+](=O)[O-])cc3)C2O)CC(O)C(O)C(C(O)C(O)CF)O1 (centres unmarked) [Kdn9Fα2–3GalβpNP]
SpNanC [1]
  Percentage conversion: 3.70 ± 1.14%

## COCC(O)C(O)C1OC(OC2C(O)C(CO)OC(Oc3ccc([N+](=O)[O-])cc3)C2O)(C(=O)O)CC(O)C1O (centres unmarked) [Kdn9OMeα2–3GalβpNP]
SpNanC [1]
  Percentage conversion: 4.02 ± 1.36%

## O=C(O)[C@]1(O[C@H]2[C@@H](O)[C@@H](CO)O[C@@H](Oc3ccc([N+](=O)[O-])cc3)[C@@H]2O)C[C@H](O)[C@@H](O)[C@H]([C@H](O)[C@H](O)CO)O1 [Kdnα2–3GalβpNP]
SpNanC [1]
  Percentage conversion: 4.50 ± 0.45%

## CC(=O)NC1C(O)CC(OC2C(O)C(CO)OC(Oc3ccc([N+](=O)[O-])cc3)C2O)(C(=O)O)OC1C(F)C(O)CO (centres unmarked) [Neu5Ac7Fα2–3GalβpNP]
SpNanC [1]
  Percentage conversion: 91.0 ± 4.3%

## CC(=O)NC1C(O)CC(OC2C(O)C(CO)OC(Oc3ccc([N+](=O)[O-])cc3)C2O)(C(=O)O)OC1C(N=[N+]=[N-])C(O)CO (stereo not drawn) [Neu5Ac7N3α2–3GalβpNP]
SpNanC [1]
  Percentage conversion: 65.9 ± 1.1%

## COC(C(O)CO)C1OC(OC2C(O)C(CO)OC(Oc3ccc([N+](=O)[O-])cc3)C2O)(C(=O)O)CC(O)C1NC(C)=O (centres unmarked) [Neu5Ac7OMeα2–3GalβpNP]
SpNanC [1]
  Percentage conversion: 96.5 ± 1.7%

## CC(=O)N[C@H]1[C@H](C[C@H](O)CO)O[C@@](O[C@H]2[C@@H](O)[C@@H](CO)O[C@@H](Oc3ccc([N+](=O)[O-])cc3)[C@@H]2O)(C(=O)O)C[C@@H]1O [Neu5Ac7deoxyα2–3GalβpNP]
SpNanC [1]
  Percentage conversion: 91.2 ± 1.8%

## CC(=O)N[C@H]1[C@H]([C@H](O)[C@H](O)CF)O[C@@](O[C@H]2[C@@H](O)[C@@H](CO)O[C@@H](Oc3ccc([N+](=O)[O-])cc3)[C@@H]2O)(C(=O)O)C[C@@H]1O [Neu5Ac9Fα2–3GalβpNP]
SpNanC [1]
  Percentage conversion: 75.6 ± 3.9%

## COCC(O)C(O)C1OC(OC2C(O)C(CO)OC(Oc3ccc([N+](=O)[O-])cc3)C2O)(C(=O)O)CC(O)C1NC(C)=O (centres unmarked) [Neu5Ac9OMeα2–3GalβpNP]
SpNanC [1]
  Percentage conversion: 88.5 ± 5.1%

## CC(=O)NC1C(O)CC(OC2C(O)C(CO)OC(Oc3ccc([N+](=O)[O-])cc3)C2O)(C(=O)O)OC1C(O)C(C)O (centres unmarked) [Neu5Ac9deoxyα2–3GalβpNP]
SpNanC [1]
  Percentage conversion: 93.5 ± 3.1%

## O=C(CF)NC1C(O)CC(OC2C(O)C(CO)OC(Oc3ccc([N+](=O)[O-])cc3)C2O)(C(=O)O)OC1C(O)C(O)CO (centres unmarked) [Neu5AcFα2–3GalβpNP]
SpNanC [1]
  Percentage conversion: 74.8 ± 3.2%

## [N-]=[N+]=NCC(=O)N[C@H]1[C@H]([C@H](O)[C@H](O)CO)O[C@@](O[C@H]2[C@@H](O)[C@@H](CO)O[C@@H](Oc3ccc([N+](=O)[O-])cc3)[C@@H]2O)(C(=O)O)C[C@@H]1O [Neu5AcN3α2–3GalβpNP]
SpNanC [1]
  Percentage conversion: 87.9 ± 1.6%

## COCC(=O)NC1C(O)CC(OC2C(O)C(CO)OC(Oc3ccc([N+](=O)[O-])cc3)C2O)(C(=O)O)OC1C(O)C(O)CO (centres unmarked) [Neu5AcOMeα2–3GalβpNP]
SpNanC [1]
  Percentage conversion: 81.8 ± 1.7%

## O=C(CO)NC1C(O)CC(OC2C(O)C(CO)OC(Oc3ccc([N+](=O)[O-])cc3)C2O)(C(=O)O)OC1C(O)C(O)CF (centres unmarked) [Neu5Gc9Fα2–3GalβpNP]
SpNanC [1]
  Percentage conversion: 72.3 ± 2.6%

## [N-]=[N+]=NCC(O)C(O)C1OC(OC2C(O)C(CO)OC(Oc3ccc([N+](=O)[O-])cc3)C2O)(C(=O)O)CC(O)C1NC(=O)CO (stereo not drawn) [Neu5Gc9N3α2–3GalβpNP]
SpNanC [1]
  Percentage conversion: 89.5 ± 3.5%

## COCC(O)C(O)C1OC(OC2C(O)C(CO)OC(Oc3ccc([N+](=O)[O-])cc3)C2O)(C(=O)O)CC(O)C1NC(=O)CO (centres unmarked) [Neu5Gc9OMeα2–3GalβpNP]
SpNanC [1]
  Percentage conversion: 75.0 ± 1.9%

## C[C@@H](O)[C@@H](O)[C@@H]1O[C@@](O[C@H]2[C@@H](O)[C@@H](CO)O[C@@H](Oc3ccc([N+](=O)[O-])cc3)[C@@H]2O)(C(=O)O)C[C@H](O)[C@H]1NC(=O)CO [Neu5Gc9deoxyα2–3GalβpNP]
SpNanC [1]
  Percentage conversion: 85.5 ± 1.4%

## O=C(CO)NC1C(O)CC(OC2C(O)C(CO)OC(Oc3ccc([N+](=O)[O-])cc3)C2O)(C(=O)O)OC1C(O)C(O)CO (centres unmarked) [Neu5Gcα2–3GalβpNP]
SpNanC [1]
  Percentage conversion: 80.6 ± 6.7%

## CC(=O)N[C@H]1[C@H]([C@H](O)[C@H](O)CO)OC(C(=O)O)=C[C@@H]1O [compound 6, 2,3-dehydro-2-deoxy-N-acetylneuraminic acid]
AuSialidase; read-out: inhibition against AuSialidase
  inhibition at 100 µM: > 50%
SpNanC [2]
  inhibitory activity against SpNanC (in words): not effective inhibitors
BiNanH2; read-out: inhibition against BiNanH2
  inhibition at 100 µM: > 50%
CpNanI
  inhibition against CpNanI: more than 50%
PmST1
  inhibitory activity against PmST1 (in words): not effective inhibitors
SpNanA; read-out: inhibition against SpNanA
  inhibition at 100 µM: > 50%
CpNanH
  inhibitory activity against CpNanH (in words): not effective inhibitors
SpNanB
  inhibitory activity against SpNanB (in words): not effective inhibitors
VcSialidase; read-out: inhibition against VcSialidase
  inhibition at 100 µM: > 50%

## O=C(CO)N[C@H]1[C@H]([C@H](O)[C@H](O)CO)OC(C(=O)O)=C[C@@H]1O [compound 7, 2,3-dehydro-2-deoxy-N-glycolylneuraminic acid]
SpNanC [2]
  inhibitory activity against SpNanC (in words): not effective inhibitors
PmST1
  inhibitory activity against PmST1 (in words): not effective inhibitors
[3]
  inhibition against hNEU2: more than 50%
CpNanH
  inhibitory activity against CpNanH (in words): not effective inhibitors
SpNanB
  inhibitory activity against SpNanB (in words): not effective inhibitors
VcSialidase
  inhibition against VcSialidase: more than 50%

## CC(=O)NC[C@@H](O)[C@@H](O)C1OC(C(=O)O)=CC(O)[C@H]1NC(C)=O (some centres unmarked) [compound 9, Neu5Ac9NAc2en]
AuSialidase
  inhibitory activity against AuSialidase (in words): lowered the inhibitory activity
SpNanC [2]
  inhibitory activity against SpNanC (in words): not effective inhibitors
BiNanH2; read-out: IC50 against BiNanH2, Neu5Acα2–3GalβpNP as substrate
  IC50: 33 ± 1 µM
PmST1
  inhibitory activity against PmST1 (in words): not effective inhibitors
[3]
  inhibitory activity against hNEU2 (in words): lowered the inhibitory activity
SpNanA
  IC50: 11 ± 0.2 µM
CpNanH
  inhibitory activity against CpNanH (in words): not effective inhibitors
SpNanB
  inhibitory activity against SpNanB (in words): not effective inhibitors
VcSialidase
  inhibitory activity against VcSialidase (in words): lowered the inhibitory activity

## CC(=O)N[C@@H]1C(O)C=C(C(=O)O)OC1C[C@H](O)CO (some centres unmarked) [compound 10, Neu5Ac7deoxy2en]
AuSialidase
  inhibitory activity against AuSialidase (in words): selective inhibitory activity
AuSialidase; read-out: IC50 against AuSialidase, Neu5Acα2–3GalβpNP as substrate
  IC50: 17 ± 1 µM
SpNanC [2]
  inhibitory activity against SpNanC (in words): not effective inhibitors
BiNanH2
  inhibitory activity against BiNanH2 (in words): not an effective inhibitor
CpNanI
  inhibitory activity against CpNanI (in words): selective inhibitory activity
PmST1
  inhibitory activity against PmST1 (in words): not effective inhibitors
[3]
  inhibitory activity against hNEU2 (in words): but not hNEU2
SpNanA
  inhibitory activity against SpNanA (in words): selective inhibitory activity
  IC50: 10.7 ± 0.4 µM
CpNanH
  inhibitory activity against CpNanH (in words): not effective inhibitors
SpNanB
  inhibitory activity against SpNanB (in words): not effective inhibitors
VcSialidase
  inhibitory activity against VcSialidase (in words): not an effective inhibitor

## O=C(Cc1ccccc1)N[C@H]1[C@H]([C@H](O)[C@H](O)CO)OC(C(=O)O)=C[C@@H]1O [compound 15, Neu5PhAc2en]
AuSialidase
  inhibitory activity against AuSialidase (in words): not any bacterial sialidases tested
SpNanC [2]
  inhibitory activity against SpNanC (in words): not effective inhibitors
BiNanH2
  inhibitory activity against BiNanH2 (in words): not any bacterial sialidases tested
CpNanI
  inhibitory activity against CpNanI (in words): not any bacterial sialidases tested
PmST1
  inhibitory activity against PmST1 (in words): not effective inhibitors
[3]
  inhibitory activity against hNEU2 (in words): retained inhibitory activity
SpNanA
  inhibitory activity against SpNanA (in words): not any bacterial sialidases tested
CpNanH
  inhibitory activity against CpNanH (in words): not effective inhibitors
SpNanB
  inhibitory activity against SpNanB (in words): not effective inhibitors
VcSialidase
  inhibitory activity against VcSialidase (in words): not any bacterial sialidases tested
